Data from article PMC11785708, “Design and synthesis of new quinazolinone derivatives: investigation of antimicrobial and biofilm inhibition effects” (Molecular Diversity, 2024).
Converted amounts (≈) assume the structure as drawn.

Columns and labels:
K. pneumoniae ATCC 13883 [1] = experiment: Agar well diffusion, K. pneumoniae; type: cell-based; conditions: Klebsiella pneumoniae, ATCC13883; 100 μl of test compound 20 mg/ml in DMF; ciprofloxacin and fluconazole 30 μg/ml; 24 h; mean ± SD; read-out: diameters of inhibition zone, K. pneumoniae ATCC 13883
Description: (§1) The antimicrobial activity was tested against Gram positive bacteria: Bacillus cereus (B. cereus ATCC 6629), Bacillus subtilis (B. subtilis ATCC 6633), Staphylococcus aureus (S. aureus ATCC 6538), Gram negative bacteria: Klebsiella pneumoniae (K. pneumoniae ATCC 13883), Pseudomonas aeruginosa (P. aeruginosa ATCC 27953) and Candida albicans (C. albicans ATCC 10231). Glycerol stocks were thawed upon need and propagated into nutrient broth at 37 °C. The antibacterial activity of the compounds 9-32 was carried out in vitro using the agar well diffusion method, originally reported by […] and Bauer and coworkers and described by the National Committee for Clinical Laboratory Standards (NCCLS). Bacterial strains, adjusted at […] (equivalent to 0.5 McFarland), were used to inoculate nutrient agar plates. 9-mm diameter wells were punched into the solidified nutrient agar plates using sterile cork borer and 100 μl samples of the test compounds, dissolved in dimethyl formamide (DMF) at 20 mg/ml concentrations, were added and allowed to diffuse at 4 °C for 2 h. Subsequently, the plates were incubated overnight in an upright position at 37 °C. DMF was used as a negative control while ciprofloxacin and fluconazole (30 μg/ml) served as positive controls. After 24 h incubation, the diameters of the growth inhibition zones were recorded in mm. Data was expressed as mean ± standard deviation of three replicates.

P. aeruginosa ATCC 27953 [2] = experiment: Agar well diffusion, P. aeruginosa; type: cell-based; conditions: Pseudomonas aeruginosa, ATCC27953; 100 μl of test compound 20 mg/ml in DMF; ciprofloxacin and fluconazole 30 μg/ml; 24 h; mean ± SD; read-out: diameters of inhibition zone, P. aeruginosa ATCC 27953
Description: as §1

B. subtilis ATCC 6633 [3] = experiment: Agar well diffusion, B. subtilis; type: cell-based; conditions: Bacillus subtilis, ATCC6633; 100 μl of test compound 20 mg/ml in DMF; ciprofloxacin and fluconazole 30 μg/ml; 24 h; mean ± SD; read-out: diameters of inhibition zone, B. subtilis ATCC 6633
Description: as §1

C. albicans ATCC 10231 [4] = experiment: Agar well diffusion, C. albicans; type: cell-based; conditions: Candida albicans, ATCC10231; 100 μl of test compound 20 mg/ml in DMF; ciprofloxacin and fluconazole 30 μg/ml; 24 h; mean ± SD; read-out: diameters of inhibition zone, C. albicans ATCC 10231
Description: as §1

K. pneumoniae ATCC 13883 [5] = experiment: MIC determination, K. pneumoniae; type: cell-based, Klebsiella pneumoniae; conditions: serial dilutions, triplicate
Description: (§2) Serial dilutions of the test compounds were tested to determine their MIC against the most susceptible organisms. The MIC was expressed as the lowest concentration which inhibited the visible growth of the corresponding microorganism. All assays were performed in triplicate.

C. albicans ATCC 10231 [6] = experiment: MIC determination, C. albicans; type: cell-based, Candida albicans; conditions: serial dilutions, triplicate
Description: as §2

B. subtilis ATCC 6633 [7] = experiment: MIC determination, B. subtilis; type: cell-based, Bacillus subtilis; conditions: serial dilutions, triplicate
Description: as §2

Cell viability MTT assay = type: cell-based; conditions: human, BJ1 cells (normal skin fibroblasts)
Description: Cell viability testing at 5 mg/ml was carried out by colorimetric MTT assay on human normal cell line BJ1 (skin fibroblasts) to investigate the toxicity of the most broad spectrum derivatives 9, 15, 16, 18, 19, 20 and 29 (Table 3). The viability of the cells treated with the aforementioned derivatives was more than 87% at 5 mg/ml concentration. This gives indication that the compounds are tolerated and nontoxic for human cells, as the cytotoxic dose was higher than the therapeutic dose on most of microorganisms. It is worth mentioning that the safe limit of the percent of dead cells is not an absolute value and could be more than 10% as reported in previous studies.
The most broad spectrum compounds were evaluated for their cytotoxic activity against BJ1 cell line using colorimetric MTT [3-(4,5-dimethylthiazol-2-yl)-2,5-diphenyltetrazolium bromide] assay.

P. aeruginosa ATCC 27953 [8] = experiment: MIC determination, P. aeruginosa; type: cell-based, Pseudomonas aeruginosa; conditions: Pseudomonas aeruginosa, ATCC27953; serial dilutions, triplicate
Description: as §2

S. aureus ATCC 6538 = experiment: Agar well diffusion, S. aureus; type: cell-based; conditions: Staphylococcus aureus, ATCC6538; 100 μl of test compound 20 mg/ml in DMF; ciprofloxacin and fluconazole 30 μg/ml; 24 h; mean ± SD; read-out: diameters of inhibition zone, S. aureus ATCC 6538
Description: as §1

COc1ccc(C=Nn2c(CN3CCCCC3)nc3ccccc3c2=O)cc1 [Compound 24, 3-[(4-Methoxylbenzylidene)amino]-2-(piperidin-1-ylmethyl)quinazolin-4(3H)-one]
zone of inhibition at 20000 µg/mL (K. pneumoniae ATCC 13883 [1]): 12 ± 0.14 mm
melting point: 138 °C
zone of inhibition at 20000 µg/mL (P. aeruginosa ATCC 27953 [2]): 14 ± 0.21 mm

COc1cc(C=Nn2c(CN3CCCCC3)nc3ccccc3c2=O)cc(OC)c1OC [Compound 25, 2-(Piperidin-1-ylmethyl)-3-[(3,4,5-trimethoxybenzylidene)amino]quinazolin-4(3H)-one]
zone of inhibition at 20000 µg/mL (K. pneumoniae ATCC 13883 [1]): 14 ± 0.17 mm
melting point: 112 to 114 °C
zone of inhibition at 20000 µg/mL (P. aeruginosa ATCC 27953 [2]): 21 ± 0.17 mm

O=c1c2ccccc2nc(CN2CCCCC2)n1N=Cc1ccc([N+](=O)[O-])cc1 [Compound 26]
zone of inhibition at 20000 µg/mL (K. pneumoniae ATCC 13883 [1]): 11 ± 0.07 mm
melting point: 180 to 182 °C
zone of inhibition at 20000 µg/mL (B. subtilis ATCC 6633 [3]): 12 ± 0.11 mm

O=c1c2ccccc2nc(CN2CCOCC2)n1N=Cc1ccccc1 [Compound 27, 3-(Benzylideneamino)-2-(morpholinomethyl)quinazolin-4(3H)-one]
zone of inhibition at 20000 µg/mL (C. albicans ATCC 10231 [4]): 13 ± 0.09 mm
zone of inhibition at 20000 µg/mL (K. pneumoniae ATCC 13883 [1]): 14 ± 0.16 mm
melting point: 132 °C
zone of inhibition at 20000 µg/mL (B. subtilis ATCC 6633 [3]): 14 ± 0.15 mm

O=c1c2ccccc2nc(CN2CCOCC2)n1N=Cc1ccc(Cl)cc1 [Compound 28, 3-[(4-Chlorobenzylidene)amino]-2-(morpholinomethyl)quinazolin-4(3H)-one]
zone of inhibition at 20000 µg/mL (K. pneumoniae ATCC 13883 [1]): 16 ± 0.18 mm
melting point: 140 to 142 °C
zone of inhibition at 20000 µg/mL (B. subtilis ATCC 6633 [3]): 12 ± 0.2 mm

Cc1ccc(C=Nn2c(CN3CCOCC3)nc3ccccc3c2=O)cc1 [Compound 29, 3-[(4-Methylbenzylidene)amino]-2-(morpholinomethyl)quinazolin-4(3H)-one]
MIC (K. pneumoniae ATCC 13883 [5]; Klebsiella pneumoniae, ATCC13883): 2500 µg/mL (≈ 6.9 mM)
MIC, K. pneumoniae ATCC 13883 (K. pneumoniae ATCC 13883 [5]): 2500 ± 500 µg/mL (≈ 6.9 mM)
MIC (C. albicans ATCC 10231 [6]; Candida albicans, ATCC10231): 5000 µg/mL (≈ 13.8 mM)
MIC, C. albicans ATCC 10231 (C. albicans ATCC 10231 [6]): 5000 ± 290 µg/mL (≈ 13.8 mM)
zone of inhibition at 20000 µg/mL (C. albicans ATCC 10231 [4]): 13 ± 0.07 mm
zone of inhibition at 20000 µg/mL (K. pneumoniae ATCC 13883 [1]): 20 ± 0.15 mm
melting point: 128 °C
MIC (B. subtilis ATCC 6633 [7]; Bacillus subtilis, ATCC6633): 500 µg/mL (≈ 1.38 mM)
MIC, B. subtilis ATCC 6633 (B. subtilis ATCC 6633 [7]): 500 ± 60 µg/mL (≈ 1.38 mM)
viability at 5 mg/ml (Cell viability MTT assay): 87.6 ± 3.61%
zone of inhibition at 20000 µg/mL (P. aeruginosa ATCC 27953 [2]): 14 ± 0.16 mm
MIC (P. aeruginosa ATCC 27953 [8]): 1500 µg/mL (≈ 4.14 mM)
zone of inhibition at 20000 µg/mL (B. subtilis ATCC 6633 [3]): 14 ± 0.06 mm

COc1ccc(C=Nn2c(CN3CCOCC3)nc3ccccc3c2=O)cc1 [Compound 30, 3-[(4-Methoxylbenzylidene)amino]-2-(morpholinomethyl)quinazolin-4(3H)-one]
zone of inhibition at 20000 µg/mL (K. pneumoniae ATCC 13883 [1]): 14 ± 0.15 mm
melting point: 138 °C
zone of inhibition at 20000 µg/mL (S. aureus ATCC 6538): 12 ± 0.12 mm

COc1cc(C=Nn2c(CN3CCOCC3)nc3ccccc3c2=O)cc(OC)c1OC [Compound 31, 2-(Morpholinomethyl)-3-[(3,4,5-trimethoxybenzylidene)amino]quinazolin-4(3H)-one]
melting point: 155 °C

O=c1c2ccccc2nc(CN2CCOCC2)n1N=Cc1ccc([N+](=O)[O-])cc1 [Compound 32, 2-(Morpholinomethyl)-3-[(4-nitrobenzylidene)amino]quinazolin-4(3H)-one]
melting point: 200 °C
zone of inhibition at 20000 µg/mL (P. aeruginosa ATCC 27953 [2]): 18 ± 0.09 mm
zone of inhibition at 20000 µg/mL (B. subtilis ATCC 6633 [3]): 14 ± 0.27 mm

OC(Cn1cncn1)(Cn1cncn1)c1ccc(F)cc1F [Fluconazole, reference compound]
zone of inhibition at 20000 µg/mL (C. albicans ATCC 10231 [4]): 20 ± 0.18 mm
